Results taken from patent US10752615B2, “Spirocyclic containing compounds and pharmaceutical uses thereof” (GB005, Inc., priority 2016, dated 2020).
pIC50: −log10 of the molar value.

Experiments:
TXK = TXK (Homo sapiens (Human), UniProt P42681); test: Kinase inhibition assay (Nanosyn, microfluidic detection), TXK; type: biochemical; conditions: 1 mM ATP, 3 hours at 25° C.
Description: The in vitro kinase assays were performed at Nanosyn (Santa Clara, Calif.) utilizing microfluidic detection technology. The test compounds were serially pre-diluted in DMSO and added, by the acoustic dispensing (Labcyte® 550), directly to 384 well assay plates into 10 uL of a buffer with enzyme (ITK, TXK, BTK or TEC) comprising: 100 mM HEPES, pH7.5, 5 mM MgCl2, 0.1% bovine serum albumin, 1 mM DTT, 0.01% Triton X-100 and the enzyme. Final DMSO concentration was maintained at 1% in all samples, including the controls. The reactions were initiated by addition of ATP (1 mM final concentration) and the fluorescently labeled peptide substrate to a final concentration of 1 uM, and incubated for 3 hours at 25° C. Following incubation, the reactions were quenched by addition of 40 μL of termination buffer (100 mM HEPES, pH7.5, 0.01% Triton X-100, 50 mM EDTA). Terminated plates were analyzed using Caliper LabChip® 3000 microfluidic electrophoresis instrument (Caliper Life Sciences/Perkin Elmer). […] As substrate and product are separated by electrophoresis, two peaks of fluorescence are observed. Change in the relative fluorescence intensity of the substrate and product peaks was the parameter measured, reflecting enzyme activity. In the presence of inhibitor, the ratio between product and substrate is altered: signal of the product decreases, while the signal of the substrate increases. Activity in each test sample was determined as the product to sum ratio (PSR): P/(S+P), where P is the peak height of the product and S is the peak height of the […]. For each compound, enzyme activity was measured at 12 concentrations spaced by 3× dilution intervals. Negative control samples (0%-inhibition in the absence of inhibitor, DMSO only) and positive control samples (100%-inhibition, in the absence of enzyme or in the presence of control inhibitor) were assembled in replicates of four and were used to calculate %-inhibition values in the presence of compounds. Percent inhibition (Pinh) was determined using the following equation: Pinh=(PSR0%−PSRinh)/(PSR0%−PSR100%)*100, where PSRinh is the product sum ratio in the presence of inhibitor, PSR0% is the product sum ratio in the absence of inhibitor and PSR100% is the product sum ratio in 100%-inhibition control samples. To determine IC50 values, the inhibition curves (Pinh versus inhibitor concentration) were fitted by 4 parameter sigmoid dose-response model using XLfit software (IDBS).

BTK = BTK (Homo sapiens (Human), UniProt Q06187); test: Kinase inhibition assay (Nanosyn, microfluidic detection), BTK; type: biochemical; conditions: 1 mM ATP, 3 hours at 25° C.
Sequence of BTK (Q06187 whole entry): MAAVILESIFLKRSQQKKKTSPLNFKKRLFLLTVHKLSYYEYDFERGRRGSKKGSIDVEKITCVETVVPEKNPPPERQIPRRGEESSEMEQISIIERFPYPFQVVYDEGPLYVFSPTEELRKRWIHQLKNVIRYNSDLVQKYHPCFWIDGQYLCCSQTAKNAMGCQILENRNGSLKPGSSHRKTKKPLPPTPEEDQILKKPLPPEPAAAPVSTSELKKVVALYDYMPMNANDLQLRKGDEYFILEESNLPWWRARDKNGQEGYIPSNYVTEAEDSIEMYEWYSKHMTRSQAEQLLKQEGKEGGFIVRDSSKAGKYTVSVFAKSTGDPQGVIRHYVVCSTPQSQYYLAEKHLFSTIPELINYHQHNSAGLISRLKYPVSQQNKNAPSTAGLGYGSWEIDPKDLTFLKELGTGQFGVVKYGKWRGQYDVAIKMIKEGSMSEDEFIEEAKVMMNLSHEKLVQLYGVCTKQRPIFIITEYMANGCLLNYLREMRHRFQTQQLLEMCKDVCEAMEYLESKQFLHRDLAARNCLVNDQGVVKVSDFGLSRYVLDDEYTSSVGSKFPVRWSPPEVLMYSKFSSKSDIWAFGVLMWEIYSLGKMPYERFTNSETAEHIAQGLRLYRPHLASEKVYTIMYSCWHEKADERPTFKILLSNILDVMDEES
Description: The in vitro kinase assays were performed at Nanosyn (Santa Clara, Calif.) utilizing microfluidic detection technology. The test compounds were serially pre-diluted in DMSO and added, by the acoustic dispensing (Labcyte® 550), directly to 384 well assay plates into 10 uL of a buffer with enzyme (ITK, TXK, BTK or TEC) comprising: 100 mM HEPES, pH7.5, 5 mM MgCl2, 0.1% bovine serum albumin, 1 mM DTT, 0.01% Triton X-100 and the enzyme. Final DMSO concentration was maintained at 1% in all samples, including the controls. The reactions were initiated by addition of ATP (1 mM final concentration) and the fluorescently labeled peptide substrate to a final concentration of 1 uM, and incubated for 3 hours at 25° C. Following incubation, the reactions were quenched by addition of 40 μL of termination buffer (100 mM HEPES, pH7.5, 0.01% Triton X-100, 50 mM EDTA). Terminated plates were analyzed using Caliper LabChip® 3000 microfluidic electrophoresis instrument (Caliper Life Sciences/Perkin Elmer). The enzymatic modification of the peptide substrate (phosphorylation) results in a change of net charge enabling electrophoretic separation of product from substrate. As substrate and product are separated by electrophoresis, two peaks of fluorescence are observed. Change in the relative fluorescence intensity of the substrate and product peaks was the parameter measured, reflecting enzyme activity. In the presence of inhibitor, the ratio between product and substrate is altered: signal of the product decreases, while the signal of the substrate increases. Activity in each test sample was determined as the product to sum ratio (PSR): P/(S+P), where P is the peak height of the product and S is the peak height of the […]. For each compound, enzyme activity was measured at 12 concentrations spaced by 3× dilution intervals. Negative control samples (0%-inhibition in the absence of inhibitor, DMSO only) and positive control samples (100%-inhibition, in the absence of enzyme or in the presence of control inhibitor) were assembled in replicates of four and were used to calculate %-inhibition values in the presence of compounds. Percent inhibition (Pinh) was determined using the following equation: Pinh=(PSR0%−PSRinh)/(PSR0%−PSR100%)*100, where PSRinh is the product sum ratio in the presence of inhibitor, PSR0% is the product sum ratio in the absence of inhibitor and PSR100% is the product sum ratio in 100%-inhibition control samples. To determine IC50 values, the inhibition curves (Pinh versus inhibitor concentration) were fitted by 4 parameter sigmoid dose-response model using XLfit software (IDBS).

Sequence of TXK (P42681 whole entry): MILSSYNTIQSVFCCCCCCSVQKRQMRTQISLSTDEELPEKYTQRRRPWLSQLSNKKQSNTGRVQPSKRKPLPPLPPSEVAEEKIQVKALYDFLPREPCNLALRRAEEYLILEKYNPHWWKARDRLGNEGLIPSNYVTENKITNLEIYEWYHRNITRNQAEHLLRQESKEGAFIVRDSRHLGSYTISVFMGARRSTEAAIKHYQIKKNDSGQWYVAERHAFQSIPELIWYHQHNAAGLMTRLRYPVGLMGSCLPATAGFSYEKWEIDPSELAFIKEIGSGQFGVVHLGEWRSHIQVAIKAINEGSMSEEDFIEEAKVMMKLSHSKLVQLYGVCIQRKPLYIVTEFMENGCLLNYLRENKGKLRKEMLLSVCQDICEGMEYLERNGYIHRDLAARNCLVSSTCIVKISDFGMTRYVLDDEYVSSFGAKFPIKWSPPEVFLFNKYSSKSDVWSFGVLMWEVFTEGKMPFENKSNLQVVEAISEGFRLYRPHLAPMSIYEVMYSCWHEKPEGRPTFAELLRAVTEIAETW

Row | SMILES | pIC50 (TXK) | pIC50 (BTK)
1 | C=CC(=O)N1CC[C@]2(C1)C[C@H](n1c(NC(=O)c3ccc(-c4cnco4)s3)nc3c(Cl)cccc31)C2 [Compound 64] | 7.40 | 6.91
2 | C=CC(=O)N1CC[C@]2(C1)C[C@H](n1c(NC(=O)c3ccc(-c4cnco4)s3)nc3ccc(Cl)cc31)C2 [Compound 65] | 9.38 | 8.70
3 | C=CC(=O)N1CC[C@]2(C1)C[C@H](n1c(NC(=O)c3ccc(Oc4ccccc4)nc3)nc3ccccc31)C2 [Compound 66] | 8.36 | 7.95
4 | C=CC(=O)N1CC[C@]2(C1)C[C@@H](n1c(NC(=O)c3ccc(-c4cnco4)s3)nc3c(F)cccc31)C2 [Compound 67] | 7.71 | 7.00
5 | C=CC(=O)N1CC[C@]2(C1)C[C@H](n1c(NC(=O)c3ccc(-c4ccccn4)s3)nc3ccccc31)C2 [Compound 74] | 8.79 | 7.59
6 | C=CC(=O)N1CC[C@]2(C1)C[C@H](n1c(NC(=O)c3ccc(-c4ccnn4C)s3)nc3ccccc31)C2 [Compound 75] | 9.92 | 8.99
7 | C=CC(=O)N1CC[C@]2(C1)C[C@H](n1c(NC(=O)c3ccc(-c4cccnn4)s3)nc3ccccc31)C2 [Compound 76] | 8.55 | 7.65
8 | C=CC(=O)N1CC[C@]2(C1)C[C@H](n1c(NC(=O)c3ccc(-c4cnco4)s3)nc3ccc(CN4CCOCC4)cc31)C2 [Compound 77] | 9.43 | 9.11
9 | C=CC(=O)N1CC[C@]2(C1)C[C@@H](n1c(NC(=O)c3ccc(-c4cnco4)s3)nc3ccc(CO)cc31)C2 [Compound 78] | 8.63 | 7.93
10 | C=CC(=O)N1CC[C@]2(C1)C[C@H](n1c(NC(=O)c3cc(C)cs3)nc3ccccc31)C2 [Compound 79] | 7.77 | 6.60
11 | C=CC(=O)N1CC[C@]2(C1)C[C@H](n1c(NC(=O)c3cccs3)nc3ccccc31)C2 [Compound 82] | 8.48 | 7.48
12 | C=CC(=O)N1CC[C@]2(C1)C[C@H](n1c(NC(=O)c3ccc(=O)[nH]c3)nc3ccccc31)C2 [Compound 83] | 8.70 | 8.12
13 | C=CC(=O)N1CC[C@]2(C1)C[C@H](n1c(NC(=O)c3ccn(C)c(=O)c3)nc3ccccc31)C2 [Compound 84] | 7.70 | 7.19
14 | C=CC(=O)N1CC[C@]2(C1)C[C@@H](n1c(NC(=O)c3ccc(-c4cnco4)s3)nc3ccc(CN4CCCC4)cc31)C2 [Compound 86] | 8.65 | 8.08
15 | C=CC(=O)N1CC[C@]2(C1)C[C@H](n1c(NC(=O)c3ccc(-n4cccn4)s3)nc3ccccc31)C2 [Compound 89] | 8.50 | 7.63
16 | C=CC(=O)N1CC[C@]2(C1)C[C@H](n1c(NC(=O)c3ccc(-c4cccnc4)s3)nc3ccccc31)C2 [Compound 90] | 9.29 | 8.28
17 | C=CC(=O)N1CC[C@]2(C1)C[C@H](n1c(NC(=O)c3ccc(-c4nnc(C)o4)s3)nc3ccccc31)C2 [Compound 94] | 9.09 | 8.86
18 | C=CC(=O)N1CC[C@]2(C1)C[C@H](n1c(NC(=O)c3ccc(-c4ccc(OC)nc4)s3)nc3ccccc31)C2 [Compound 95] | 8.04 | 7.71

Results, then the compound that gave them:

Row | pIC50 (TXK) | pIC50 (BTK) | SMILES
19 | 9.46 | 8.81 | C=CC(=O)N1CC[C@]2(C1)C[C@H](n1c(NC(=O)c3ccc(-c4ccnc(OC)c4)s3)nc3ccccc31)C2 [Compound 96]
20 | 9.00 | 7.99 | C=CC(=O)N1CC[C@]2(C1)C[C@H](n1c(NC(=O)c3ccc(-c4ccc(=O)[nH]c4)s3)nc3ccccc31)C2 [Compound 99]
21 | 9.03 | 8.03 | C=CC(=O)N1CC[C@]2(C1)C[C@H](n1c(NC(=O)c3ccc(C(=O)NCC)s3)nc3ccccc31)C2 [Compound 101]
22 | 9.03 | 8.21 | C=CC(=O)N1CC[C@]2(C1)C[C@H](n1c(NC(=O)c3ccc(-c4ccccc4)s3)nc3ccccc31)C2 [Compound 103]
23 | 8.67 | 7.58 | C=CC(=O)N1CC[C@]2(C1)C[C@H](n1c(NC(=O)c3ccc(C)s3)nc3ccccc31)C2 [Compound 104]
24 | 7.63 | 6.95 | C=CC(=O)N1CC[C@]2(C1)C[C@H](n1c(NC(=O)c3ccc(NC(=O)CC)s3)nc3ccccc31)C2 [Compound 105]
25 | 8.28 | 7.68 | C#Cc1ccc(C(=O)Nc2nc3ccccc3n2[C@H]2C[C@@]3(CCN(C(=O)C=C)C3)C2)s1 [Compound 107]
26 | 8.99 | 7.98 | C=CC(=O)N1CC[C@]2(C1)C[C@H](n1c(NC(=O)c3ccc(-c4ccc(=O)n(C)c4)s3)nc3ccccc31)C2 [Compound 108]
27 | 7.85 | 7.36 | C=CC(=O)N1CC[C@]2(C1)C[C@H](n1c(NC(=O)c3ccc(-c4ccn(C)c(=O)c4)s3)nc3ccccc31)C2 [Compound 109]
28 | 9.74 | 8.95 | C=CC(=O)N1CC[C@]2(C1)C[C@H](n1c(NC(=O)c3ccc(-c4ccncc4)s3)nc3ccccc31)C2 [Compound 110]
29 | 8.88 | 8.33 | C=CC(=O)N1CC[C@]2(C1)C[C@H](n1c(NC(=O)c3ccc(-c4cnn(C)c4)s3)nc3ccccc31)C2 [Compound 113]
30 | 9.66 | 8.48 | C=CC(=O)N1CC[C@]2(C1)C[C@H](n1c(NC(=O)c3ccc(-c4ccnnc4)s3)nc3ccccc31)C2 [Compound 114]
31 | 8.51 | 7.80 | C=CC(=O)N1CC[C@]2(C1)C[C@H](n1c(NC(=O)c3ccc(-c4cc[nH]n4)s3)nc3ccccc31)C2 [Compound 116]
32 | 8.31 | 8.13 | C=CC(=O)N1CC[C@]2(C1)C[C@H](n1c(NC(=O)c3ccc(-c4ccc(NC)nc4)s3)nc3ccccc31)C2 [Compound 117]
33 | 9.31 | 8.27 | C=CC(=O)N1CC[C@]2(C1)C[C@H](n1c(NC(=O)c3ccc(-c4cncn4C)s3)nc3ccccc31)C2 [Compound 123]
34 | 9.47 | 8.84 | C=CC(=O)N1CC[C@]2(C1)C[C@H](n1c(NC(=O)c3ccc(-c4cn[nH]c4)s3)nc3ccccc31)C2 [Compound 124]
35 | 9.62 | 8.97 | C=CC(=O)N1CC[C@]2(C1)C[C@H](n1c(NC(=O)c3ccc(-c4ccnc(F)c4)s3)nc3ccccc31)C2 [Compound 125]
36 | 9.10 | 8.04 | C=CC(=O)N1CC[C@]2(C1)C[C@H](n1c(NC(=O)c3ccc(-c4ccc(F)nc4)s3)nc3ccccc31)C2 [Compound 126]
37 | 9.68 | 9.08 | C=CC(=O)N1CC[C@]2(C1)C[C@H](n1c(NC(=O)c3ccc(-c4c[nH]nc4C4CC4)s3)nc3ccccc31)C2 [Compound 129]
38 | 8.70 | 7.99 | C=CC(=O)N1CC[C@]2(C1)C[C@H](n1c(NC(=O)c3ccc(-c4cnccn4)s3)nc3ccccc31)C2 [Compound 132]
